According to paper PMC11665553, “12-Lipoxygenase inhibition delays onset of autoimmune diabetes in human gene replacement mice” (JCI Insight, 2024):
Several values for one entry are separate records, joined by “and”; a condition that tells them apart may be missing. Equal values may be shown once.

Legend:
12-LOX products = assay: Serum lipidomics (LC-MS/MS) of 12-LOX and non-12-LOX products in NOD.hALOX12 mice; assay type: in vivo, mouse
Experimental: Lipidomics analysis (by LC-MS/MS) was performed for a series of 12-LOX products resulting from different fatty acid substrates (Figure 2A).

NOD.hALOX12 mice [1] = assay: NanoString spatial proteomics of insulitic and insulin-positive areas in NOD.hALOX12 mice; assay type: in vivo, mouse; conditions: Insulitic Area; Fig 2F source data, individual values
NOD.hALOX12 mice [2] = assay: Insulitis scoring and pancreas immunostaining (CD3, B220, F4/80, MAC2) in NOD.hALOX12 mice; assay type: in vivo, mouse
NOD.hALOX12 mice [3] = assay: Diabetes treatment (reversal) in diabetic female NOD.hALOX12 mice; assay type: in vivo, mouse; conditions: 30 mg/kg/day p.o. up to 6 weeks
Experimental: Mice were followed for diabetes development (blood glucose ≥250 mg/dL on 2 consecutive days) until 25 weeks of age (Figure 3A).
For diabetes treatment studies, female NOD.hALOX12 mice were followed for random-fed blood glucose from 12 to 20 weeks of age.

C57BL/6J mice = assay: Multiple low-dose STZ-induced diabetes in WT C57BL/6J mice (random-fed blood glucose, GTT); assay type: in vivo, mouse; set-up: Random-fed blood glucose (Fig 1E) / GTT blood glucose (Fig 1F): unit not given here; conditions: for Random-fed blood glucose (Fig 1E): 30 mg/kg i.p. + STZ; for Random-fed blood glucose (Fig 1E) / GTT blood glucose (Fig 1F): listed as ML355; for GTT blood glucose (Fig 1F): Control (C57BL/6J)
[4] = system: BMDMs from NOD.hALOX12 mice; assay: RNA sequencing of M0 and M1-like polarized BMDMs; assay type: cell-based, mouse
From the text: BMDMs were unpolarized (M0) or polarized to an M1-like state (with lipopolysaccharide and IFN-γ) to mimic the inflammatory state that might be observed during T1D pathogenesis.
These common genes mapped to pathways related to cytokine-mediated signaling, T cell activation, and antigen processing and presentation (Supplemental Figure 3B). […] The 507 genes altered with vehicle treatment mapped to GO pathways related to the M1 polarization phenotype (myeloid cell differentiation, immune response, response to cytokines) and pathways related to oxidative stress (cell redox homeostasis, response to hydrogen peroxides) (Figure 5E). These pathways were not identified in the genes that were differentially expressed during VLX-1005 treatment.
BMDMs were isolated from 8-week-old NOD.hALOX12 mice as described previously ([2]). The isolated BMDMs were cultured for 7 days in complete medium (RPMI 1640 containing 10% FBS, 10 mM HEPES, and 100 U/mL penicillin/streptomycin) supplemented with 10 ng/mL M-CSF. […] After 1-hour pretreatment, the BMDMs were further stimulated with 10 ng/mL LPS and 25 ng/mL IFN-γ for 18 hours for M1-like polarization. RNA was isolated and used for sequencing.
RNA extraction was performed using RLT Buffer, according to the manufacturer’s instructions (Qiagen). Samples were submitted for library generation and sequencing by the University of Chicago sequencing core using a NovaSeq 6000 (Illumina). Data were analyzed using Galaxy (https://usegalaxy.org/). Reads were aligned to the Mus musculus genome build mm10 using HISAT2 (https://daehwankimlab.github.io/hisat2/). Individual sample reads were quantified using HTseq-count and normalized using DESeq2 (https://bioconductor.org/packages/release/bioc/html/DESeq2.html). DEseq2 was also used to calculate FCs and P values and to perform optional covariate correction. GO was used for pathway analysis.

[5] = Pharmacokinetics after single p.o. dose in NOD.ShiLt/J mice (plasma LC-MS/MS); assay type: in vivo, mouse; conditions: 30 mg/kg p.o., mean ± SD
From the text: The NOD mouse model is a model of T1D that recapitulates many of the immune and β cell features of the disease ([20]). […] To address this question, we introgressed humanized hALOX12 mice onto the NOD background using a speed congenics approach. […] We next measured human 12-LOX protein levels in the NOD.hALOX12 mice.

[6] = female NOD.hALOX12 mice, 30 mg/kg p.o., 1 week
[7] = serum, individual animals, listed as VLX
[8] = female NOD.hALOX12 mice, 30 mg/kg p.o., 4 weeks
[9] = sheet Fig 2G, pancreas immunostaining, individual animals, listed as VLX
[10] = sheet Fig 5G, 4 replicates, listed as VLX

COc1cccc(CNc2ccc(S(=O)(=O)Nc3nc4ccccc4s3)cc2)c1O [VLX-1005]
Serum 12-HEPE level vs vehicle (12-LOX products; [6]): not significantly changed
Serum 12-HETE level vs vehicle (12-LOX products; [6]): significantly reduced
Serum 13-HODE level vs vehicle (12-LOX products; [6]): significantly reduced
Serum 14-HDHA level vs vehicle (12-LOX products; [6]): significantly reduced
Serum 17-HDHA level vs vehicle (12-LOX products; [6]): significantly reduced
12-HEPE (Fig 2B) (12-LOX products; [7]): 14.181 and 5.614 and 0.079 and 3.392 and 10.786
12-HETE (Fig 2B) (12-LOX products; [7]): 1108.62 and 574.602 and 13.903 and 321.764 and 853.064
13(S)-HODE (Fig 2B) (12-LOX products; [7]): 213.641 and 75.17 and 53.113 and 81.494 and 90.355
14-HDHA (Fig 2B) (12-LOX products; [7]): 76.057 and 30.285 and 4.719 and 24.172 and 46.818
15-HETE (Fig 2B) (12-LOX products; [7]): 21.905 and 9.387 and 6.557 and 15.336 and 15.324
17-HDHA (Fig 2B) (12-LOX products; [7]): 7.358 and 2.244 and 2.092 and 3.507 and 3.423
CD19 (NOD.hALOX12 mice [1]): 0.1873 and -0.4029 and 0.4865 and 2.831 and -0.3159 and 0.2718 and 0.8536 and 0.6292 and 1.249 and 2.864
T and B cell infiltration (pancreas pathology) (NOD.hALOX12 mice [2]; [8]): reduced T and B cell infiltration
T cells (CD3+), macrophages (F4/80+), activated macrophages (Mac2+) by immunohistochemistry (NOD.hALOX12 mice [2]; [8]): reductions
Extent of insulitis (insulitis scoring) vs vehicle (NOD.hALOX12 mice [2]; female NOD.hALOX12 mice, 30 mg/kg p.o., 4 weeks (6–10 weeks of age)): significantly reduced
Insulitis score (Fig 2E) (NOD.hALOX12 mice [2]; individual animals, listed as VLX): 1.633 and 1.787 and 1.784 and 1.529 and 1.472
CD3 (NOD.hALOX12 mice [2]; [9]): 1.368e-5 and 2.024e-5 and 0.0002739 and 0 and 2.686e-5
F4/80 (NOD.hALOX12 mice [2]; [9]): 0.00043 and 0.0003528 and 0.0003661 and 0.0004659 and 0.0002593
F4/80 (second Veh/VLX pair) (NOD.hALOX12 mice [2]; [9]): 0.000451 and 0.000344 and 0.000488 and 0.0002845
Blood glucose levels vs vehicle in established diabetes (NOD.hALOX12 mice [3]): relative reductions in blood glucose levels
Reversal of established diabetes (NOD.hALOX12 mice [3]): did not observe a reversal in diabetes
Random-fed blood glucose (Fig 1E) (C57BL/6J mice; C57BL/6J, day 0, individual mice): 180 and 167 and 192 and 187
Random-fed blood glucose (Fig 1E) (C57BL/6J mice; C57BL/6J, day 5, individual mice): 172 and 214 and 232 and 221
Random-fed blood glucose (Fig 1E) (C57BL/6J mice; C57BL/6J, day 10, individual mice): 253 and 280 and 275 and 278
Random-fed blood glucose (Fig 1E) (C57BL/6J mice; C57BL/6J, day 15, individual mice): 347 and 298 and 284 and 335
Random-fed blood glucose (Fig 1E) (C57BL/6J mice; C57BL/6J, day 22, individual mice): 347 and 428 and 437 and 367
Random-fed blood glucose (Fig 1E) (C57BL/6J mice; C57BL/6J, day 27, individual mice): 487 and 478 and 512 and 486
Random-fed blood glucose (Fig 1E) (C57BL/6J mice; C57BL/6J, day -5, individual mice): 190 and 213 and 199 and 201
GTT AUC (Fig 1G) (C57BL/6J mice; C57BL/6J, 30 mg/kg i.p., day 4 after STZ, individual mice): 44930 and 36610 and 49530 and 43880
GTT blood glucose (Fig 1F) (C57BL/6J mice; 30 mg/kg i.p., day 4 after STZ, 0 min after glucose, individual mice): 164 and 184 and 175 and 154
GTT blood glucose (Fig 1F) (C57BL/6J mice; 30 mg/kg i.p., day 4 after STZ, 10 min after glucose, individual mice): 268 and 395 and 398 and 425
GTT blood glucose (Fig 1F) (C57BL/6J mice; 30 mg/kg i.p., day 4 after STZ, 20 min after glucose, individual mice): 532 and 602 (2×) and 658
GTT blood glucose (Fig 1F) (C57BL/6J mice; 30 mg/kg i.p., day 4 after STZ, 30 min after glucose, individual mice): 682 and 563 and 602 and 586
GTT blood glucose (Fig 1F) (C57BL/6J mice; 30 mg/kg i.p., day 4 after STZ, 60 min after glucose, individual mice): 547 and 425 and 594 and 493
GTT blood glucose (Fig 1F) (C57BL/6J mice; 30 mg/kg i.p., day 4 after STZ, 90 min after glucose, individual mice): 459 and 369 and 530 and 452
GTT blood glucose (Fig 1F) (C57BL/6J mice; 30 mg/kg i.p., day 4 after STZ, 120 min after glucose, individual mice): 366 and 256 and 369 and 398
Glycemic outcome after STZ (C57BL/6J mice; male WT C57BL/6J mice, 30 mg/kg i.p. daily peri-STZ): became overtly hyperglycemic
Magnitude of changes of IFN pathway genes vs vehicle in M1-like BMDMs ([4]; 10 μM, P < 0.05 by t test): augmented significantly
Adar expression (heat map value) [4, 10]: 1.762 and 1.682 and 1.654 and 1.2
Arrdc4 expression (heat map value) [4, 10]: 1.769 and 1.684 and 1.6721 and 1.333
Ddx3x expression (heat map value) [4, 10]: 0.9319 and 0.8926 and 0.8886 and 0.8518
Dhx58 expression (heat map value) [4, 10]: 2.321 and 1.936 and 1.912 and 1.006
Gigyf2 expression (heat map value) [4, 10]: 0.9359 and 0.7566 and 0.751 and 0.4484
Kat5 expression (heat map value) [4, 10]: 0.9038 and 0.7157 and 0.4242 (2×)
Lrrfip2 expression (heat map value) [4, 10]: 1.898 and 1.808 and 1.658 and 1.413
Mark4 expression (heat map value) [4, 10]: 1.966 and 1.936 and 1.657 and 1.006
Mmp12 expression (heat map value) [4, 10]: 0.8105 and 0.4921 (3×)
Ninj1 expression (heat map value) [4, 10]: 1.769 and 1.701 and 1.685 and 1.401
Nlrp3 expression (heat map value) [4, 10]: 2.077 and 1.964 and 1.718 and 1.337
Nono expression (heat map value) [4, 10]: 1.2 and 1.151 and 1.126 and 1.119
Oas1e expression (heat map value) [4, 10]: 2.321 and 1.949 and 1.675 and 1.657
Pou2f2 expression (heat map value) [4, 10]: 1.6038 and 1.537 and 1.347 and 1.324
Riok3 expression (heat map value) [4, 10]: 1.411 and 1.279 and 1.172 and 1.109
Srebf1 expression (heat map value) [4, 10]: 0.9499 and 0.826 and 0.6628 and 0.3958
Tank expression (heat map value) [4, 10]: 2.305 and 1.708 and 1.675 and 0.8815
Tlr6 expression (heat map value) [4, 10]: 2.235 and 2.002 and 1.489 and 1.453
Tmem126a expression (heat map value) [4, 10]: 0.7845 and 0.7743 and 0.7659 and 0.465
Tomm70a expression (heat map value) [4, 10]: 1.572 and 1.428 and 1.219 and 1.127
Ttll12 expression (heat map value) [4, 10]: 2.1636 and 1.773 and 1.7 and 1.671
Ube2k expression (heat map value) [4, 10]: 1.475 and 1.413 and 1.263 and 1.205
AUClast/D ([5]; dose-normalized): 440 ± 54 ng·h/mL
AUC%extrap_obs [5]: 0.115 ± 0.099%
AUC(0-inf) ([5]; mouse, plasma, po): 13200 ng·h/mL
AUC(0-t) ([5]; mouse, plasma, po): 13200 ng·h/mL
Cmax ([5]; mouse, plasma, po): 14300 ng/mL
half-life ([5]; mouse, plasma, po): 152 ± 24.6 min
MRT inf ([5]; mouse, plasma, po, read-out: MRTinf_obs): 3.81 ± 0.71 h
